Source: patent US9266904B2, “6-bridged heteroaryldihydropyrimidines for the treatment and prophylaxis of hepatitis B virus infection” (priority 2013, dated 2016)
Converted amounts (≈) assume the structure as drawn.

How the values were obtained:
[1] = Human microsomal clearance assay; type: in vitro ADME; conditions: human, 1 μM, pH 7.4
Method in brief: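 Liver microsomes (0.5 mg/mL protein) were incubated with 1 μM compound at 37 °C, pH 7.4 phosphate, with an NADPH-regenerating system. Samples at 0-30 min were quenched and measured by LC-MS/MS for parent loss. No-NADPH controls were included.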

[2] = test system: HBV replication in HepG2.2.15 cells; assay: Anti-HBV activity in vitro in HepG2.2.15 cells (extracellular HBV DNA by qPCR); type: cell-based; conditions: Hepatitis B virus, HepG2.2.15, Anti-HBV activity in HepG2.2.15 cells; read-out: EC50
Method in brief: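 Constitutively HBV-producing HepG2.2.15 cells were seeded overnight at 37 °C, then treated with half-log serial dilutions of compound (0.5% DMSO final) for five days. Supernatant HBV DNA was extracted and quantified by qPCR; EC50 is the concentration inhibiting HBV replication by 50%.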

HepDE19 cells = assay: Cytotoxicity (CCK-8 cell viability) and selectivity index; type: cell-based, human; conditions: CC50 value/EC50 value
Method in brief: (§1)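 HepDE19 cells (5×10^3/well) were treated with compounds as for the EC50 runs and, after 5 days, given CCK-8 for 2 h at 37° C. Absorbance was read at OD450 and OD630, and CC50 was taken as the concentration killing 50% of host cells.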

[3] = as above; type: cell-based, human; conditions: human, HepDE19 cells; cytotoxicity, concentration resulting in death of 50% of host cells
Method in brief: as §1

[4] = Lyophilisation solubility assay (Lysa); type: physicochemical; conditions: pH 6.5, aqueous buffer, thermodynamic from solid
Method in brief: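 DMSO was evaporated from 10 mM stocks, and residues were taken up in 0.05 M phosphate buffer pH 6.5, stirred 1 h, shaken 2 h and left overnight. Filtrates were quantified by UV or HPLC-UV against a four-point calibration, in duplicate. Values are in μg/ml, with a lower-bound value when >80% dissolved.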

## COC(=O)C1=C(CN2[C@H]3COC[C@@H]2[C@H](CC(=O)O)C3)NC(c2nccs2)=N[C@H]1c1ccc(F)cc1Br [Example 64, 2-[(1R,5S,6S)-8-[[(4R)-4-(2-bromo-4-fluoro-phenyl)-5-methoxycarbonyl-2-thiazol-2-yl-1,4-dihydropyrimidin-6-yl]methyl]-3-oxa-8-azabicyclo[3.2.1]octan-6-yl]acetic acid]
[1]
  CLh: 2.6 mL/min/kg
[2]
  EC50: 16.6 nM
HepDE19 cells
  Selectivity index (CC50/EC50): >6024
[3]
  CC50 at 5 days: > 100000 nM
[4]
  solubility thermodynamic: 660 µg/mL (≈ 1140 µM)

## COC(=O)C1=C(CN2[C@@H]3CC[C@@]2(C(=O)O)COC3)NC(c2nccs2)=N[C@H]1c1ccc(F)c(F)c1C [Example 85, (1R,5S)-8-[[(4S)-4-(3,4-difluoro-2-methyl-phenyl)-5-methoxycarbonyl-2-thiazol-2-yl-1,4-dihydropyrimidin-6-yl]methyl]-3-oxa-8-azabicyclo[3.2.1]octane-5-carboxylic acid]
[1]
  CLh: 1.3 mL/min/kg
[2]
  EC50: 6.6 nM
HepDE19 cells
  Selectivity index (CC50/EC50): >15152
[3]
  CC50 at 5 days: > 100000 nM
[4]
  solubility thermodynamic: > 639 µg/mL

## COC(=O)C1=C(CN2[C@@H]3COC[C@H]2C[C@H](CC(=O)O)C3)NC(c2nccs2)=N[C@H]1c1cccc(F)c1Br [Example 74, Exo-2-[(1S,5R)-9-[[(4R)-4-(2-bromo-3-fluoro-phenyl)-5-methoxycarbonyl-2-thiazol-2-yl-1,4-dihydropyrimidin-6-yl]methyl]-3-oxa-9-azabicyclo[3.3.1]nonan-7-yl]acetic acid]
[1]
  CLh: 0.5 mL/min/kg
[2]
  EC50: 10.9 nM
HepDE19 cells
  Selectivity index (CC50/EC50): >9174
[3]
  CC50 at 5 days: > 100000 nM
[4]
  solubility thermodynamic: > 621 µg/mL

## CCOC(=O)C1=C(CN2[C@@H]3COC[C@H]2C[C@@H](CC(=O)O)C3)NC(c2nccs2)=N[C@H]1c1cccc(F)c1Cl [Example 65, Endo-2-[(1S,5R)-9-[[(4R)-4-(2-chloro-3-fluoro-phenyl)-5-ethoxycarbonyl-2-thiazol-2-yl-1,4-dihydropyrimidin-6-yl]methyl]-3-oxa-9-azabicyclo[3.3.1]nonan-7-yl]acetic acid]
[1]
  CLh: 2.8 mL/min/kg
[2]
  EC50: 11.8 nM
HepDE19 cells
  Selectivity index (CC50/EC50): 5980
[3]
  CC50 at 5 days: 71000 nM
[4]
  solubility thermodynamic: 375 µg/mL (≈ 666 µM)

## CCOC(=O)C1=C(CN2C3COCC2C(F)(F)[C@H](CC(=O)O)C3)NC(c2nccs2)=N[C@H]1c1cccc(F)c1Cl (stereo partly drawn) [Example 130, 2-[(7S)-9-[[(4R)-4-(2-chloro-3-fluoro-phenyl)-5-ethoxycarbonyl-2-thiazol-2-yl-1,4-dihydropyrimidin-6-yl]methyl]-6,6-difluoro-3-oxa-9-azabicyclo[3.3.1]nonan-7-yl]acetic acid]
[1]
  CLh: 5.0 mL/min/kg
[2]
  EC50: 6.4 nM
HepDE19 cells
  Selectivity index (CC50/EC50): 10830
[3]
  CC50 at 5 days: 69000 nM
[4]
  solubility thermodynamic: 219 µg/mL (≈ 366 µM)

## CCOC(=O)C1=C(CN2[C@@H]3COC[C@H]2C[C@H](CC(=O)O)C3)NC(c2nccs2)=N[C@H]1c1ccc(F)c(F)c1C [Example 78, Exo-2-[(1S,5R)-9-[[(4S)-4-(3,4-difluoro-2-methyl-phenyl)-5-ethoxycarbonyl-2-thiazol-2-yl-1,4-dihydropyrimidin-6-yl]methyl]-3-oxa-9-azabicyclo[3.3.1]nonan-7-yl]acetic acid]
[1]
  CLh: 1.9 mL/min/kg
[2]
  EC50: 2 nM
HepDE19 cells
  Selectivity index (CC50/EC50): 36515
[3]
  CC50 at 5 days: 73000 nM
[4]
  solubility thermodynamic: 111 µg/mL (≈ 198 µM)

## COC(=O)C1=C(CN2[C@@H]3CC[C@@]2(C(=O)O)COC3)NC(c2nccs2)=N[C@H]1c1ccc(F)cc1Cl [Example 82, (1R,5S)-8-[[(4R)-4-(2-chloro-4-fluoro-phenyl)-5-methoxycarbonyl-2-thiazol-2-yl-1,4-dihydropyrimidin-6-yl]methyl]-3-oxa-8-azabicyclo[3.2.1]octane-5-carboxylic acid]
[1]
  CLh: 0 mL/min/kg
[2]
  EC50: 13.1 nM
HepDE19 cells
  Selectivity index (CC50/EC50): >7634
[3]
  CC50 at 5 days: > 100000 nM
[4]
  solubility thermodynamic: > 628 µg/mL
